From patent publication US8129371B2, “Thienopyrimidine and pyrazolopyrimidine compounds and their use as mTOR kinase and PI3 kinase inhibitors” (Wyeth LLC, priority 2007, dated 2012)

Columns and labels:
[1] = target: T1, PI3K (Homo sapiens, UniProt P48736); assay: Fluorescence polarization assay for PI3K; type: biochemical; settings: PI3 Kinase γ; read-out: PI3 Kinase γ IC50
T1 construct: PI3 Kinase γ IC50; other: PI3 Kinase γ; other: PI3 Kinase γ isoform, fluorescence polarization
How it was run: (§1)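 Fluorescence-polarization competition readout: after 30–60 min of PIP2/ATP turnover in 1% DMSO, a stop mix with GST-GRP (70 nM) and red probe (10 nM) was added.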

[2] = target: T2, PI3K (Homo sapiens, UniProt P42336); assay: Fluorescence polarization assay for PI3K; type: biochemical; settings: PI3 Kinase α; read-out: PI3 Kinase α IC50
T2 construct: PI3 Kinase α IC50; other: PI3 Kinase α; other: PI3 Kinase α isoform, fluorescence polarization
How it was run: as §1

[3] = target: T3, Human mTOR (FLAG-TOR) (Homo sapiens, UniProt P42345); assay: Human mTOR kinase assay with purified enzyme, DELFIA format; type: biochemical
T3 construct: FLAG
How it was run: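 DELFIA readout: Eu-anti-P(T389)-S6K antibody (40 ng/mL, 1 h) on captured His6-S6K from the stopped reaction. Kinase step used purified FLAG-tagged human mTOR with test compound in HEPES (pH 7.4)/MnCl2/DTT buffer, 2 h at room temperature (linear 1–6 h), terminated by EDTA/EGTA.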

[4] = tested on: prostate line LNCap; assay: In vitro cell culture growth assay (MTS), LNCap; type: cell-based; settings: Homo sapiens, LNCaP, 72 h, LNCap cells, three days after drug treatment
How it was run: (§2)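 The readout was MTS dye metabolism at 490 nm, taken after 3-day drug exposure that began the day after seeding. Growth was expressed as percent of vehicle-treated wells in the same plate.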

[5] = tested on: breast line MDA468; assay: In vitro cell culture growth assay (MTS), MDA468; type: cell-based; settings: Homo sapiens, 72 h, MDA468 cells, three days after drug treatment
How it was run: as §2

T2 sequence (P42336 whole entry, canonical isoform): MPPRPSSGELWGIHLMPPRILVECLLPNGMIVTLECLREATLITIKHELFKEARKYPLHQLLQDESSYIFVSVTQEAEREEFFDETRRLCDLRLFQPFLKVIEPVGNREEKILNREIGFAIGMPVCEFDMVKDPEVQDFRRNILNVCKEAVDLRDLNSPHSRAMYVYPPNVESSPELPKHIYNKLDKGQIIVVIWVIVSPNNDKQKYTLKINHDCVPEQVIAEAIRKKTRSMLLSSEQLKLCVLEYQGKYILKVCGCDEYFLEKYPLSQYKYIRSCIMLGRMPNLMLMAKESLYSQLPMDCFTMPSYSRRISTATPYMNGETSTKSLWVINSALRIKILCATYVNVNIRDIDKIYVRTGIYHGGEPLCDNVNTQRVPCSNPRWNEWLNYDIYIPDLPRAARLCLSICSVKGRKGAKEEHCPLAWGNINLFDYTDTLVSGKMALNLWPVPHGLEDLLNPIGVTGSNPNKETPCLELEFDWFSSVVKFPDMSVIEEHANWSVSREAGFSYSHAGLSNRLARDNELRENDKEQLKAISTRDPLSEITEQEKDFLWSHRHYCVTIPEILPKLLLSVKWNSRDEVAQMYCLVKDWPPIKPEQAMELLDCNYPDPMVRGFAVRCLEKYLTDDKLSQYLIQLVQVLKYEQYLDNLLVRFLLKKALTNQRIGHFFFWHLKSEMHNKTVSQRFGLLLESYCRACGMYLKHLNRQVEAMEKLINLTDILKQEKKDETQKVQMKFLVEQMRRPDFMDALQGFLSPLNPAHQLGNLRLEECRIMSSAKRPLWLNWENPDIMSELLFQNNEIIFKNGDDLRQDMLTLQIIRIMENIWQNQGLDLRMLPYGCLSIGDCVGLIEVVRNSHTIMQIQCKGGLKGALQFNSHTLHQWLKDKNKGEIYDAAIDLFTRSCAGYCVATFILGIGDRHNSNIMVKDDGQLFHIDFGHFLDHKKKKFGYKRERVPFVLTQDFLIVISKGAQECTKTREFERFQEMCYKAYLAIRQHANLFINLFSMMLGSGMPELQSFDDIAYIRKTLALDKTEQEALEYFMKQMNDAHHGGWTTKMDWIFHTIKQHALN
T1 sequence (P48736 whole entry, canonical isoform): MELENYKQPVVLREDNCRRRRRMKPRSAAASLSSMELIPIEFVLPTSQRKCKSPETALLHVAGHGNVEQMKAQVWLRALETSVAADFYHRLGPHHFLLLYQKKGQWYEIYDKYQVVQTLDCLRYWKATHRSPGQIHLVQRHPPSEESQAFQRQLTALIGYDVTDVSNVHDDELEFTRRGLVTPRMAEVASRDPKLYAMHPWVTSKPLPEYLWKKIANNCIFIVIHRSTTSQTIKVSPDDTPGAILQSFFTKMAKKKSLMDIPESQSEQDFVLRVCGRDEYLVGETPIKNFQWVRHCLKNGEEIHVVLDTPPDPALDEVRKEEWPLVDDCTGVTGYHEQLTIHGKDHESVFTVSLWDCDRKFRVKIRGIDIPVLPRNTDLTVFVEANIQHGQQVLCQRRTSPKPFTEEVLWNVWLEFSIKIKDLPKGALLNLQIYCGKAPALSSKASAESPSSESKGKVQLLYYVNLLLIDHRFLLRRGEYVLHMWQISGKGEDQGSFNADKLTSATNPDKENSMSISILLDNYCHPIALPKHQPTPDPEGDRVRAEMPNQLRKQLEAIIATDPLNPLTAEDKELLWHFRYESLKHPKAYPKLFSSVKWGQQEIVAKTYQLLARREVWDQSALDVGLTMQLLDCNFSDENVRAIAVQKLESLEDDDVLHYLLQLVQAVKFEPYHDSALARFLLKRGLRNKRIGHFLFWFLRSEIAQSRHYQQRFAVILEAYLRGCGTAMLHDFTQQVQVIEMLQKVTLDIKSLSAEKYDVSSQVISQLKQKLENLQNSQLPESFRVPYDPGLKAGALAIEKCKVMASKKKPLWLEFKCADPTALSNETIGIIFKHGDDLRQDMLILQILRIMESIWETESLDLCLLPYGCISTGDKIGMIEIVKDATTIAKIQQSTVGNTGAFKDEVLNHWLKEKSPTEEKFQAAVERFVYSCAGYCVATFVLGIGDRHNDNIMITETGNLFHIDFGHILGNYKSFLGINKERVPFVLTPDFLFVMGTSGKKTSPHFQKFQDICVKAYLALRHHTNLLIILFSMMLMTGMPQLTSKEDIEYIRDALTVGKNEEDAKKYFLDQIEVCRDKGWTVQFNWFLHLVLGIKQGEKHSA

Row | SMILES | IC50 [1] [µM] | IC50 [2] [nM] | IC50 [3] [nM] | IC50 [4] [nM] | IC50 [5] [nM]
1 | O=C(Nc1ccc(-c2nc(N3CC4CCC(C3)O4)c3cnn(C4CCN(CC(F)(F)F)CC4)c3n2)cc1)NC1CC1 [Example 265, 1-cyclopropyl-3-(4-{4-(8-oxa-3-azabicyclo[3.2.1]oct-3-yl)-1-[1-(2,2,2-trifluoroethyl)piperidin-4-yl]-1H-pyrazolo[3,4-d]pyrimidin-6-yl}phenyl)urea] | > 10 | 3470 | 1.2 | 18 | 700
2 | O=C(Nc1ccc(-c2nc(N3C4CCC3COC4)c3cnn(CC(F)(F)F)c3n2)cc1)OCCO [Example 266, 2-hydroxyethyl {4-[4-(3-oxa-8-azabicyclo[3.2.1]oct-8-yl)-1-(2,2,2-trifluoroethyl)-1H-pyrazolo[3,4-d]pyrimidin-6-yl]phenyl}carbamate] | > 10 | 2720 | 0.615 | 27 | 180
3 | CNC(=O)Nc1ccc(-c2nc(N3C4CCC3COC4)c3cnn(CC(F)(F)F)c3n2)cc1 [Example 267, 1-methyl-3-{4-[4-(3-oxa-8-azabicyclo[3.2.1]oct-8-yl)-1-(2,2,2-trifluoroethyl)-1H-pyrazolo[3,4-d]pyrimidin-6-yl]phenyl}urea] | 9 | 1370 | 0.565 | 9 | 40
4 | O=C(Nc1ccc(-c2nc(N3C4CCC3COC4)c3cnn(CC(F)(F)F)c3n2)cc1)Nc1cccnc1 [Example 268, 1-{4-[4-(3-oxa-8-azabicyclo[3.2.1]oct-8-yl)-1-(2,2,2-trifluoroethyl)-1H-pyrazolo[3,4-d]pyrimidin-6-yl]phenyl}-3-pyridin-3-ylurea] | 3.01 | 227 | 0.2 | < 1 | 3
5 | O=C(Nc1ccc(CO)cc1)Nc1ccc(-c2nc(N3C4CCC3COC4)c3cnn(CC(F)(F)F)c3n2)cc1 [Example 269, 1-[4-(hydroxymethyl)phenyl]-3-{4-[4-(3-oxa-8-azabicyclo[3.2.1]oct-8-yl)-1-(2,2,2-trifluoroethyl)-1H-pyrazolo[3,4-d]pyrimidin-6-yl]phenyl}urea] | 2.13 | 117 | 0.079 | < 1 | < 1
6 | CN1CCN(c2ccc(NC(=O)Nc3ccc(-c4nc(N5C6CCC5COC6)c5cnn(CC(F)(F)F)c5n4)cc3)cc2)CC1 [Example 270, 1-[4-(4-methylpiperazin-1-yl)phenyl]-3-{4-[4-(3-oxa-8-azabicyclo[3.2.1]oct-8-yl)-1-(2,2,2-trifluoroethyl)-1H-pyrazolo[3,4-d]pyrimidin-6-yl]phenyl}urea] | 9.5 | 371 | 0.52 | < 1 | 1
7 | O=C(Nc1ccc(-c2nc(N3C4CCC3COC4)c3cnn(CC(F)(F)F)c3n2)cc1)NC1CC1 [Example 271, 1-cyclopropyl-3-{4-[4-(3-oxa-8-azabicyclo[3.2.1]oct-8-yl)-1-(2,2,2-trifluoroethyl)-1H-pyrazolo[3,4-d]pyrimidin-6-yl]phenyl}urea] | 9 | 3680 | 0.355 | 7 | 80
8 | O=C(Nc1ccc(CCO)cc1)Nc1ccc(-c2nc(N3C4CCC3COC4)c3cnn(CC(F)(F)F)c3n2)cc1 [Example 272, 1-[4-(2-hydroxyethyl)phenyl]-3-{4-[4-(3-oxa-8-azabicyclo[3.2.1]oct-8-yl)-1-(2,2,2-trifluoroethyl)-1H-pyrazolo[3,4-d]pyrimidin-6-yl]phenyl}urea] | 1.15 | 132 | 0.106 | < 1 | 1
9 | O=C(Nc1ccc(-c2nc(N3C4CCC3COC4)c3cnn(CC(F)(F)F)c3n2)cc1)Nc1ccc(N2CCOCC2)cc1 [Example 273, 1-(4-morpholin-4-ylphenyl)-3-{4-[4-(3-oxa-8-azabicyclo[3.2.1]oct-8-yl)-1-(2,2,2-trifluoroethyl)-1H-pyrazolo[3,4-d]pyrimidin-6-yl]phenyl}urea] | > 10 | 618 | 0.24 | 1 | 10
10 | O=C(Nc1ccc(-c2nc(N3C4CCC3COC4)c3cnn(CC(F)(F)F)c3n2)cc1)Nc1ccc(N2CCOCC2)nc1 [Example 274, 1-(6-morpholin-4-ylpyridin-3-yl)-3-{4-[4-(3-oxa-8-azabicyclo[3.2.1]oct-8-yl)-1-(2,2,2-trifluoroethyl)-1H-pyrazolo[3,4-d]pyrimidin-6-yl]phenyl}urea] | 7.31 | 1210 | 0.245 | < 1 | 20
11 | CN(C)CCOc1ccc(NC(=O)Nc2ccc(-c3nc(N4C5CCC4COC5)c4cnn(CC(F)(F)F)c4n3)cc2)cc1 [Example 275, 1-{4-[2-(dimethylamino)ethoxy]phenyl}-3-{4-[4-(3-oxa-8-azabicyclo[3.2.1]oct-8-yl)-1-(2,2,2-trifluoroethyl)-1H-pyrazolo[3,4-d]pyrimidin-6-yl]phenyl}urea] | 3.11 | 275 | 0.575 | < 1 | < 1
12 | CCn1ncc2c(N3CC4CCC(C3)O4)nc(-c3ccc(NC(=O)NCC(=O)N4CCN(C)CC4)cc3)nc21 [Example 276, 1-{4-[1-ethyl-4-(8-oxa-3-azabicyclo[3.2.1]oct-3-yl)-1H-pyrazolo[3,4-d]pyrimidin-6-yl]phenyl}-3-[2-(4-methylpiperazin-1-yl)-2-oxoethyl]urea] | 9 | 3980 | 93 | 7500 | 30000
13 | CCn1ncc2c(N3CC4CCC(C3)O4)nc(-c3ccc(NC(=O)NCCC(=O)N4CCN(C)CC4)cc3)nc21 [Example 277, 1-{4-[1-ethyl-4-(8-oxa-3-azabicyclo[3.2.1]oct-3-yl)-1H-pyrazolo[3,4-d]pyrimidin-6-yl]phenyl}-3-[3-(4-methylpiperazin-1-yl)-3-oxopropyl]urea] | > 10 | 2950 | 110 | 3500 | 8000
14 | CCn1ncc2c(N3CC4CCC(C3)O4)nc(-c3ccc(NC(=O)NCC(=O)NCCN(C)C)cc3)nc21 [Example 278] | 0.494 | 311 | 42 | 2200 | 5200
15 | CCn1ncc2c(N3CC4CCC(C3)O4)nc(-c3ccc(NC(=O)NCCC(=O)NCCN(C)C)cc3)nc21 [Example 279] | 8.11 | 1830 | 23.5 | 3200 | 6000
16 | CCn1ncc2c(N3CC4CCC(C3)O4)nc(-c3ccc(NC(=O)Nc4ccc(N5CCCC5)cc4)cc3)nc21 [Example 280, 1-{4-[1-ethyl-4-(8-oxa-3-azabicyclo[3.2.1]oct-3-yl)-1H-pyrazolo[3,4-d]pyrimidin-6-yl]phenyl}-3-(4-pyrrolidin-1-ylphenyl)urea] | 8.21 | 1440 | 6 | 55 | 120
17 | CCn1ncc2c(N3CC4CCC(C3)O4)nc(-c3ccc(NC(=O)Nc4ccc(OCCO)cc4)cc3)nc21 [Example 281, 1-{4-[1-ethyl-4-(8-oxa-3-azabicyclo[3.2.1]oct-3-yl)-1H-pyrazolo[3,4-d]pyrimidin-6-yl]phenyl}-3-[4-(2-hydroxyethoxy)phenyl]urea] | 1.1 | 173 | 1.07 | 4 | 19
